Here are results for 6 molecules from publication PMC8179002, “Inhibitors of thiol-mediated uptake” (Chemical Science, 2020).

Converted amounts (≈) assume the structure as drawn. Where two headings read alike, the source gives them in different places. Bridge positions count the residues as written; N and C are the ends. Peptide text beside a SMILES is read from it.

The test system of test [1] is cellular uptake of 1 in HeLa Kyoto cells. As to the kind of experiment: cells. Format: cell-based. The note with it: for IC50: read-out: IC50, inhibition of cellular uptake of 1; for minimal effective concentration: read-out: MIC, inhibition of cellular uptake of 1; for MIC (concentration that causes ∼15% reduction of reporter uptake), against reporter 1: pre-incubation time not given (Fig. 2: 1 h pre-incubation, 30 min with reporter; some 15 min). The procedure, abridged:
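HeLa Kyoto cells were pre-incubated with inhibitors at varying concentrations and times, washed, then given reporter 1 at 10 μM final for 30 min at 37°C; alternatively, inhibitors were kept during reporter exposure. Hoechst/PI staining and 10x high-content imaging gave mean intracellular fluorescence per cell and viability from PI-negative nuclei.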

Test [2] deals with cellular uptake of 2 in HeLa Kyoto cells. Kind of test: cells. Format: cell-based.
The mark [3] stands for this setting: HeLa Kyoto, 0.5 h, HeLa, tpre 0.5 h, then tco 0.5 h co-incubation of inhibitor and 1 (10 µM).
[4] abbreviates: HeLa Kyoto, 0.5 h, HeLa, tpre 0.5 h with inhibitor, removal, tinc 0.5 h with 1 (10 µM).
[5] abbreviates: HeLa Kyoto, 0.5 h, HeLa, tpre 5.5 h with FBS, then tco 0.5 h co-incubation of inhibitor and 1 (10 µM).
[6] abbreviates: HeLa Kyoto, 0.5 h, HeLa, tpre 23.5 h with FBS, then tco 0.5 h co-incubation of inhibitor and 1 (10 µM).
Where [7] appears, read: HeLa Kyoto, 1 h, HeLa, tpre 1 h with inhibitor, removal, tinc 0.5 h with 1 (10 µM).
Where [8] appears, read: HeLa Kyoto, 2 h, HeLa, tpre 2 h with inhibitor, removal, tinc 0.5 h with 1 (10 µM).
Where [9] appears, read: HeLa Kyoto, 4 h, HeLa, tpre 4 h with inhibitor, removal, tinc 0.5 h with 1 (10 µM).
Setting [10] is: HeLa Kyoto, HeLa, tpre 1 h with inhibitor, removal, tinc 0.5 h with 1 (10 µM).
Setting [11] is: HeLa Kyoto, HeLa, tpre 2 h with inhibitor, removal, tinc 0.5 h with 1 (10 µM).
Where [12] appears, read: HeLa Kyoto, HeLa, tpre 4 h with inhibitor, removal, tinc 0.5 h with 1 (10 µM).
Where [13] appears, read: HeLa Kyoto, HeLa, tpre 5.5 h with FBS, then tco 0.5 h co-incubation of inhibitor and 1 (10 µM).
Where [14] appears, read: HeLa Kyoto, HeLa, tpre 23.5 h with FBS, then tco 0.5 h co-incubation of inhibitor and 1 (10 µM).
[15] abbreviates: HeLa Kyoto, HeLa, tpre 4 h with inhibitor, removal, tinc 0.5 h with 2 (10 µM), read-out: IC50, inhibition of cellular uptake of 2.
Setting [16] is: HeLa Kyoto, HeLa, tpre 6 h with FBS, removal, tinc 0.5 h with 2 (10 µM), read-out: IC50, inhibition of cellular uptake of 2.
Where [17] appears, read: HeLa, tpre 0.5 h, then tco 0.5 h co-incubation of inhibitor and 2 (10 µM).
Where [18] appears, read: HeLa, tpre 1 h with inhibitor, removal, tinc 0.5 h with 2 (10 µM).
The mark [19] stands for this setting: HeLa, tpre 4 h with inhibitor, removal, tinc 0.5 h with 2 (10 µM).
The mark [20] stands for this setting: HeLa, tpre 6 h with FBS, removal, tinc 0.5 h with 2 (10 µM).
Where [21] appears, read: HeLa Kyoto, read-out: IC50, inhibition of cellular uptake of 2, HeLa, tpre 4 h with inhibitor, removal, tinc 0.5 h with 2 (10 µM).
The mark [22] stands for this setting: HeLa, tpre 23.5 h with FBS, then tco 0.5 h co-incubation of inhibitor and 2 (10 µM).

As usually defined, the IC50 is the concentration that gives 50% inhibition. As for `CCN1C(=O)C2SSC1C(=O)N2CC(=O)O` (centres unmarked) [compound 4], the IC50 came out at 2 ± 0.2 µM in test [1] (setting [3]); 4.4 ± 1.3 µM in test [1] (setting [4]); 1.1 ± 0.1 µM in test [1] (setting [10]); 1.5 ± 0.1 µM in test [1] (setting [11]); 2.1 ± 0.2 µM in test [1] (setting [12]); 4.9 ± 0.5 µM in test [1] (setting [13]). For the same molecule, the IC50 in test [1] (setting [14]) is 66 ± 14 µM; in test [2] (HeLa Kyoto, 0.5 h, HeLa, tpre 0.5 h, then tco 0.5 h co-incubation of inhibitor and 2 (10 µM), read-out: IC50, inhibition of cellular uptake of 2), over 20 µM; in test [2] (HeLa Kyoto, HeLa, tpre 1 h with inhibitor, removal, tinc 0.5 h with 2 (10 µM), read-out: IC50, inhibition of cellular uptake of 2) it was over 20 µM; in test [2] (setting [15]) it was over 2 µM; in test [2] (setting [16]), over 100 µM. The minimal effective concentration is 0.3 µM in test [1] (setting [3]); under 0.1 µM in test [1] (setting [4]); 0.3 µM in test [1] (setting [5]); 8.1 µM in test [1] (setting [6]); 0.1 µM in test [1] (setting [7]); 0.1 µM in test [1] (setting [8]). In addition, the minimal effective concentration in test [1] (setting [9]) came to 0.1 µM. The “MIC, inhibition of cellular uptake of 2” value in test [2] (setting [17]) is listed as 20 µM; in test [2] (setting [18]), over 20 µM; in test [2] (setting [19]), over 2 µM; in test [2] (setting [20]), 80 µM.
Take `O=C(O)CNC(=O)c1ccc2c(c1)SSSSS2` [compound 6]: the IC50 stood at 5.1 ± 0.3 µM in test [1] (setting [3]); 93 ± 28 µM in test [1] (setting [4]); 35 ± 9 µM in test [1] (setting [10]); 23 ± 6 µM in test [1] (setting [11]); 24 ± 5 µM in test [1] (setting [12]); 20 ± 1 µM in test [1] (setting [13]). In addition, the IC50 is over 20 µM in test [1] (setting [14]); over 20 µM in test [2] (HeLa Kyoto, 0.5 h, read-out: IC50, inhibition of cellular uptake of 2, HeLa, tpre 0.5 h, then tco 0.5 h co-incubation of inhibitor and 2 (10 µM)); over 10 µM in test [2] (setting [21]); over 100 µM in test [2] (HeLa Kyoto, read-out: IC50, inhibition of cellular uptake of 2, HeLa, tpre 6 h with FBS, removal, tinc 0.5 h with 2 (10 µM)). Also, the minimal effective concentration came out at 0.5 µM in test [1] (setting [3]); 0.3 µM in test [1] (setting [4]); 5 µM in test [1] (setting [5]); 12 µM in test [1] (setting [6]); 0.3 µM in test [1] (setting [7]); 0.4 µM in test [1] (setting [8]). Also, the minimal effective concentration in test [1] (setting [9]) came to 0.4 µM. Also, the “MIC (concentration that causes ∼15% reduction of reporter uptake), against reporter 1” value in test [1] (HeLa) is given as “≈ 0.3 μM”. Also, in test [2] (HeLa, longer pre-incubation (Fig. 2: 4 h pre-incubation)), the “MIC against reporter 2” value came to 4 µM (≈ 1.35 µg/mL). Moreover, the “MIC, inhibition of cellular uptake of 2” value is on record as over 20 µM in test [2] (setting [17]), 4 µM in test [2] (setting [19]) and 60 µM in test [2] (setting [20]).
With `O=C(CN1C(=O)C2SSC1C(=O)N2CCOc1ccccc1)NCC(=O)OC[C@H]1OC(O)[C@H](O)[C@@H](O)[C@@H]1O` (some centres unmarked) [compound 7], the concentration for half-maximal inhibition (IC50) in test [1] (setting [4]) is 23 ± 4 µM; in test [1] (setting [10]), 27 ± 4 µM; in test [1] (setting [11]), 15 ± 1 µM; in test [1] (setting [13]) it was 42 ± 4 µM; in test [1] (setting [14]) it was over 100 µM; in test [2] (setting [15]) it was over 100 µM. The concentration for half-maximal inhibition (IC50) in test [2] (setting [16]) is over 200 µM; in test [2] (HeLa Kyoto, HeLa, tpre 23.5 h with FBS, then tco 0.5 h co-incubation of inhibitor and 2 (10 µM), read-out: IC50, inhibition of cellular uptake of 2), 41 ± 4 µM. Also, the minimal effective concentration is 0.5 µM in test [1] (setting [4]); 6 µM in test [1] (setting [5]); 54 µM in test [1] (setting [6]); 0.5 µM in test [1] (setting [7]); 0.2 µM in test [1] (setting [8]). Besides, the “MIC (concentration that causes ∼15% reduction of reporter uptake), against reporter 1” value in test [1] (HeLa) is “≈ 0.5 μM”. Moreover, the figures for the “MIC, inhibition of cellular uptake of 2” value in test [2] (setting [19]), in test [2] (setting [20]) and in test [2] (setting [22]) were 70 µM, 180 µM and 15 µM, respectively.
As for `O=C(O)CC[C@H](NC(=O)CN1C(=O)C2SSC1C(=O)N2CCOc1ccccc1)C(=O)O` (some centres unmarked) [compound 9], the half-inhibitory concentration (IC50) in test [1] (setting [4]) was 89 ± 9 µM; in test [1] (setting [10]) it was 86 ± 13 µM; in test [1] (setting [11]), over 100 µM; in test [2] (setting [15]), over 100 µM; in test [2] (setting [16]), over 200 µM. The minimal effective concentration in test [1] (setting [4]) came to 15 µM; in test [1] (setting [7]) it was 7 µM; in test [1] (setting [8]) it was 7 µM. For the same molecule, the “MIC, inhibition of cellular uptake of 2” value in test [2] (setting [19]) was determined as 60 µM; in test [2] (setting [20]), 80 µM.
Take `O=C(O)CC[C@H](NC(=O)CCCCC1CCSS1(=O)=O)C(=O)O` (some centres unmarked) [compound 15]: the IC50 in test [1] (setting [4]) was 407 ± 49 µM; in test [1] (setting [10]) it was 306 ± 30 µM; in test [1] (setting [11]), 298 ± 31 µM; in test [1] (setting [13]) it was 258 ± 33 µM; in test [1] (setting [14]), 219 ± 16 µM; in test [2] (setting [21]) it was over 500 µM. In addition, the half-maximal inhibitory concentration (IC50) in test [2] (HeLa Kyoto, read-out: IC50, inhibition of cellular uptake of 2, HeLa, tpre 23.5 h with FBS, then tco 0.5 h co-incubation of inhibitor and 2 (10 µM)) is over 500 µM. Besides, the minimal effective concentration in test [1] (setting [4]) was found to be 100 µM; in test [1] (setting [5]), 65 µM; in test [1] (setting [6]), 55 µM; in test [1] (setting [7]), 50 µM; in test [1] (setting [8]), 50 µM. The “MIC, inhibition of cellular uptake of 2” value in test [2] (setting [19]) is reported as 150 µM; in test [2] (setting [22]) it was under 20 µM.
Regarding `N[C@H]1CSSC[C@@H](C(=O)NCC(=O)O)NC(=O)[C@H](CCC(=O)O)NC1=O` [compound 18] (H-CECG-OH; disulfide 1-3), the minimal effective concentration in test [1] (2 h) is listed as 200 µM. Moreover, the “MIC (concentration that causes ∼15% reduction of reporter uptake), against reporter 1” value in test [1] (HeLa) was “≈ 300 μM”. The IC50 was over 500 µM in test [1] (HeLa, tpre 0.5 h, then tco 0.5 h co-incubation of inhibitor and 1 (10 µM)); over 2000 µM in test [1] (HeLa, tpre 0.5 h with inhibitor, removal, tinc 0.5 h with 1 (10 µM)); over 2000 µM in test [1] (HeLa, tpre 1 h with inhibitor, removal, tinc 0.5 h with 1 (10 µM)); over 2000 µM in test [1] (HeLa, tpre 2 h with inhibitor, removal, tinc 0.5 h with 1 (10 µM)); 1000 ± 110 µM in test [1] (HeLa, tpre 5.5 h with FBS, then tco 0.5 h co-incubation of inhibitor and 1 (10 µM)); 1000 ± 40 µM in test [1] (HeLa, tpre 23.5 h with FBS, then tco 0.5 h co-incubation of inhibitor and 1 (10 µM)). The concentration for half-maximal inhibition (IC50) in test [2] (HeLa, tpre 0.5 h, then tco 0.5 h co-incubation of inhibitor and 2 (10 µM), read-out: IC50, inhibition of cellular uptake of 2) was 44 ± 5 µM; in test [2] (HeLa, tpre 1 h with inhibitor, removal, tinc 0.5 h with 2 (10 µM), read-out: IC50, inhibition of cellular uptake of 2), over 1000 µM; in test [2] (HeLa, tpre 1.5 h, then tco 0.5 h co-incubation of inhibitor and 2 (10 µM), read-out: IC50, inhibition of cellular uptake of 2), 41 ± 4 µM; in test [2] (HeLa, tpre 2 h with inhibitor, removal, tinc 0.5 h with 2 (10 µM), read-out: IC50, inhibition of cellular uptake of 2), over 1000 µM; in test [2] (HeLa, tpre 4 h with inhibitor, removal, tinc 0.5 h with 2 (10 µM), read-out: IC50, inhibition of cellular uptake of 2) it was 859 ± 140 µM. Further, the “MIC, inhibition of cellular uptake of 2” value is 4 µM in test [2] (setting [17]); 300 µM in test [2] (setting [18]); 4 µM in test [2] (HeLa, tpre 1.5 h, then tco 0.5 h co-incubation of inhibitor and 2 (10 µM)); 200 µM in test [2] (HeLa, tpre 2 h with inhibitor, removal, tinc 0.5 h with 2 (10 µM)); 100 µM in test [2] (setting [19]). In addition, the “MIC against reporter 2” value in test [2] (HeLa, upon co-incubation) is “≈ 5 μM”.
